# Results published in patent US20220273562A1, “HYDROPHOBICALLY ASSOCIATING POLYMER COUNTER ION PAIR COMPLEXES” (MALVERN COSMECEUTICS LIMITED, priority 2019, published 2022).
# Where a name gives a salt, the structure may show the parent alone.
# Key:
# [1] = Ability of polymer counter ion pair to solubilise lipid: visual clarity of polymer counter ion/PL mixtures as pH is adjusted; settings: for ion pairing with SMA 1:1 leading to formation of SMA/PL macromolecular assemblies: hydrochloride salts as cationic counter ions
# [2] = Stability of the mixtures after 2-4 mths at 4° C.; type: physicochemical; set-up: key to Stability* After 2-4 mths + at 4° C.: S-stable; PS—partially stable; NS—not stable
# [3] = SMA 1:1 50 mg, DLPC 20 mg (2.5:1), 2 ml, amine HCl [% w/w]: isopentylamine 3 mg [0.15], isobutylamine 9 mg [0.45] (clears on standing 3 days), tyramine 5-6 mg [0.25-0.3], diphenhydramine 2.5-4 mg [0.13-0.2], phenylalanine ethyl ester 10 mg [0.5], tolazoline 5 mg [0.25], naphazoline 5 mg, start pH 7 or 8
# [4] = SMA 1:1 50 mg, DLPC 20 mg, 2 ml, amine HCl: isopentylamine 3 mg, isobutylamine 9 mg, tyramine 5-6 mg, diphenhydramine 2.5-4 mg, phenylalanine ethyl ester 10 mg, tolazoline 5 mg, naphazoline 8 mg total
# [5] = SMA 1:1 50 mg, DLPC 20 mg, 2 ml, naphazoline HCl further 3 mg, 8 mg [0.4% w/w] total
# [6] = SMA 1:1 50 mg, DLPC 20 mg, 2 ml, phenylalanine ethyl ester 'Cleared,', tolazoline 'Remains clear overnight,', naphazoline 'Virtually clear'
smiles,measurement,setting,value
COc1cc(C(O)CN)ccc1O (stereo not drawn) [normetanephrine],ion pairing with SMA 1:1 leading to formation of SMA/PL macromolecular assemblies,[1],failed
"CC(C)CCN [Isopentylamine, Isopentyl amine]",pH for clear sample,[1]; [3],"7, Clear"
same,Stability* After 2-4 mths + at 4° C.,[2]; [4],NS
"Cl.NCCc1ccccc1 [PEA, 2-Phenylethylamine hydrochloride]",collapse pH,[1]; 2% PEA added to a 2.5% solution of 1:1 SMA,8-9
same,pH for clear sample,"[1]; SMA 1:1 40 mg, DLPC 20 mg (2:1), final vol 1.6 ml, PEA HCl 4.4 mg [0.25% w/w]","7, Clear"
same,pH for clear sample,"[1]; SMA 1:1 40 mg, DLPC 20 mg, final vol 1.64 ml, further 2.9 mg PEA HCl, 7.3 mg [0.45% w/w] total","10, Clear"
same,pH for clear sample,"[1]; SMA 1:1 50 mg, DLPC 25 mg (2:1), final vol 2 ml, PEA HCl 40 mg [2% w/w]",8.5 clear
same,pH for clear sample,"[1]; SMA 2:1 50 mg, DLPC 25 mg (polymer:lipid 2:1), final vol 2 ml, PEA HCl 40 mg [2% w/w]",9 clear
same,pH over which the polymer collapses to interact with phospholipid,[1]; ratio SMA(1:1):PEA 5:4,8.5
same,pH over which the polymer collapses to interact with phospholipid,[1]; ratio SMA(1:1):PEA 9:1,7.0
same,Stability* After 2-4 mths + at 4° C.,"[2]; SMA 1:1 40 mg, DLPC 20 mg, 1.6 ml, PEA HCl 4.4 mg [0.25% w/w]",NS
same,Stability* After 2-4 mths + at 4° C.,"[2]; SMA 1:1 50 mg, DLPC 25 mg, 2 ml, PEA HCl 40 mg [2% w/w]",PS
"CN(C)CCOC(c1ccccc1)c1ccccc1 [Diphenhydramine, diphenhydramine hydrochloride, reference compound]",pH at which ppt forms,"[1]; SMA 1:1 50 mg, DLPC 20 mg, 2 ml, diphenhydramine HCl 2.5-4 mg [0.13-0.2% w/w]",ppt 6
"NCCc1ccc(O)c(O)c1 [dopamine, reference compound]",ion pairing with SMA 1:1 leading to formation of SMA/PL macromolecular assemblies,[1],failed
NCC(O)c1ccc(O)cc1 (stereo not drawn) [octopamine],ion pairing with SMA 1:1 leading to formation of SMA/PL macromolecular assemblies,[1],failed
"c1ccc2c(CC3=NCCN3)cccc2c1 [Naphazoline, naphazoline hydrochloride, reference compound]",pH for clear sample,[1]; [3],"8, Clear"
same,pH at which sample is cloudy,[1]; [5],"Cloudy 7,"
same,pH for clear sample,[1]; [5],Clear 8-9.
same,ion pairing with SMA 1:1 leading to formation of SMA/PL macromolecular assemblies,[1],can also surprisingly be used as ion pairs
same,Stability* After 2-4 mths + at 4° C.,[2]; [4],PS
same,"Stability, appearance in words",[2]; [6],clear
"CCOC(=O)c1ccc(N)cc1 [benzocaine, reference compound]",ion pairing with SMA 1:1 leading to formation of SMA/PL macromolecular assemblies,[1],failed
"N[C@@H](Cc1ccc(O)c(O)c1)C(=O)O [L-dopa, reference compound]",ion pairing with SMA 1:1 leading to formation of SMA/PL macromolecular assemblies,[1],failed
CC(C)CN [Isobutylamine],pH for clear sample,"[1]; Poly(maleic acid) 50 mg, DLPC 2 mg (25:1), isobutyl amine HCl further 5 mg, 20 mg [1.0% w/w] total, printed 'No clearing.'",No
same,pH for clear sample,"[1]; Poly(maleic acid) 50 mg, DLPC 2 mg, isobutyl amine HCl further 5 mg, 25 mg [1.25% w/w] total, at pH 8, printed '8, No clearing.'","8, No"
same,pH for clear sample,"[1]; Poly(maleic acid) 50 mg, DLPC further 2, total 4 mg (12.5:1), isobutyl amine HCl 25 mg, complete clearing, fine white flecks","3, Complete"
same,pH at which ppt forms,"[1]; Poly(maleic acid) 50 mg, DLPC total 4 mg (12.5:1), isobutyl amine HCl 25 mg",4 ppt.
same,pH for clear sample,"[1]; Poly(maleic acid) ex PolyS 50 mg, 2 ml, start pH 8, isobutyl amine HCl 15 mg [0.75% w/w], no DLPC entered in this line",7
same,pH at which ppt forms,"[1]; Poly(methacrylic acid) sodium 4-6k 50 mg, DLPC 10 mg (5:1), 2 ml, start pH 6, isobutyl amine HCl 10 mg [0.5% w/w]","4, ppt"
same,pH for clear sample,"[1]; Poly(methacrylic acid) sodium 4-6k 50 mg, DLPC 10 mg, isobutyl amine HCl 24 mg [1.2% w/w] total","ppt, 5"
same,pH at which slight clouding occurs,"[1]; Poly(methacrylic acid) sodium 4-6k 50 mg, DLPC 10 mg, isobutyl amine HCl 36 mg [1.8% w/w] total","5, slight"
same,pH for clear sample,[1]; [3],"8, clears"
same,"Stability, appearance in words","[2]; Poly(methacrylic acid) sodium 4-6k 50 mg, DLPC 10 mg, isobutyl amine HCl 10 mg [0.5% w/w]",Clear
same,"Stability, appearance in words","[2]; Poly(methacrylic acid) sodium 4-6k 50 mg, DLPC 10 mg, isobutyl amine HCl 24 mg then 36 mg total, printed 'Clear overnight few white ppt particles'",Clear
same,Stability* After 2-4 mths + at 4° C.,[2]; [4],S
"CCOC(=O)[C@@H](N)Cc1ccccc1.Cl [Phenylalanine ethyl ester, L-phenylalanine ethyl ester hydrochloride]",pH for clear sample,[1]; [3],"8, Clears"
same,Stability* After 2-4 mths + at 4° C.,[2]; [4],PS
same,"Stability, appearance in words",[2]; [6],"Cleared,"
"NCCc1ccc(O)cc1 [Tyramine, tyramine]",ion pairing with SMA 1:1 leading to formation of SMA/PL macromolecular assemblies,[1],can also surprisingly be used as ion pairs
same,Stability* After 2-4 mths + at 4° C.,[2]; [4],S
"c1ccc(CC2=NCCN2)cc1 [2-Benzyl-2-imidazoline (tolazoline), 2-benzyl-2-imidazoline, reference compound]",pH for clear sample,"[1]; Poly(methacrylic acid) sodium 4-6k 50 mg (preformed PMA + Bz), DLPC 10 mg (5:1), 2 ml, start pH 7-8, tolazoline HCl 22 mg [1.1% w/w], printed 'ppt & clear'","6, ppt &"
same,pH for clear sample,[1]; [3],"7-8,"
same,collapse pK of the 1:1 SMA polymer when associating with PL,[1]; imidazoline counter ion in place of a primary amine,~7
same,Stability* After 2-4 mths + at 4° C.,[2]; [4],S
same,"Stability, appearance in words",[2]; [6],clear
"NC[C@H](O)c1ccc(O)c(O)c1 [L-norepinephrine, reference compound]",ion pairing with SMA 1:1 leading to formation of SMA/PL macromolecular assemblies,[1],failed
"Nc1ccc(C(=O)O)cc1 [4-amino benzoic acid (PABA), 4-amino benzoic acid]",ion pairing with SMA 1:1 leading to formation of SMA/PL macromolecular assemblies,[1],failed
"CN(C)CCCC1c2ccccc2CCc2ccccc21 [amitryptyline hydrochloride, reference compound]",ion pairing with SMA 1:1 leading to formation of SMA/PL macromolecular assemblies,[1],only partially formed
